In patent US12721863B2, “Treatment for down syndrome-related accelerated aging” (The Texas A&M University System, priority 2021, dated 2026):

How the values were obtained:
AHI lymphocytes = assay: AP39 challenge of AHI lymphocytes; format: cell-based, human; conditions: AHI cells; 5 μM AP39; p<0.05; FIG. 10
From the text: (§1) Age-matched and sex-matched DS-donor and apparently healthy individual (AHI) lymphocytes (Coriell Institute, Camden, NJ) are used as a human model of DS.

DS lymphocytes = assay: AP39 challenge of DS lymphocytes; format: cell-based, human; conditions: DS cells; 5 μM AP39; p<0.05; FIG. 10
From the text: as §1

Nrf2 = Nrf2 Western blot in bEnd.3 cells; format: cell-based, mouse; conditions: lipoic acid 1 mM alone; FIG. 9
Method: Culture of bEnd.3 Cells for Nrf2 Study—Mouse brain endothelial (b.End3) cells are grown and maintained in DMEM supplemented with 10% fetal bovine serum and 1% penicillin streptomycin. Once cells reach 90% confluence, cells are split in a 1-to-5 ratio.
Treatment of bEnd.3 Cells for Nrf2 Study—b.End3 cells are seeded on 10-cm petri dishes. On day 4, half of the old media is discarded and replaced with fresh media.
Nrf2 Western blotting—Cell extraction is performed using Cell Lysis Buffer and the provided protocol (ThermoFisher #FNN0011). Proteins are quantified using Bradford assay (Thermofisher #1863028). Same amounts of proteins of each lysate (20 μg) are loaded on an SDS-PAGE gel under reducing conditions (unless stated otherwise). Membrane transfer is done overnight (about 18 hours) in cold room and blocked with 5% dry milk/TBST the next day. Subsequently, the membrane is incubated with primary antibodies overnight (about 18 hours) and with secondary antibodies for an hour in blocking solution. Signals are developed with ECL (ThermoFisher #A43840) and captured with ChemiDoc™ Imaging System.

SMILES	cell proliferation (AHI lymphocytes)	cell proliferation (DS lymphocytes)	viability versus untreated control (DS lymphocytes)	Nrf2 signal (Western blot) (Nrf2)
O=C(CCCCCCCCC[P+](c1ccccc1)(c1ccccc1)c1ccccc1)Oc1ccc(-c2cc(=S)ss2)cc1.[Br-] [AP39]	reduced	reduced	significant reduction in viability	
O=C(O)CCCC[C@@H]1CCSS1 (racemic) [lipoic acid]				some small increases in signal
